{"source": "patent US20240342138A1", "about": "“MICROTUBULE TARGETING AGENTS” (BPGbio, Inc., priority 2023, published 2024)", "key": {"[1]": {"test": "Blood brain barrier permeability (PVDF membrane coated with porcine brain polar lipid extract)", "assay_type": "in vitro ADME", "protocol": "Preparation of Donor Solution a) 0.2 mM working solution was prepared by diluting 10 mM stock solution with DMSO. b) 10 μM donor solution (5% DMSO) was prepared by diluting 20 μL of working solution with 380 μL PBS. 2) 150 μL of 10 μM donor solutions to each well of the donor plate, whose PVDF membrane was precoated with 5 μL of 1% brain polar lipid extract (Porcine)/dodecane mixture. Duplicates were prepared. 3) 300 μL of PBS was added to each well of the PTFE acceptor plate. 4) The donor plate and acceptor plate were combined together and incubated for 4h at room temperature with shaking at 300 rpm. 5) Preparation of TO sample: 20 μL donor solution was transferred to new well followed by the addition of 250 μL PBS (DF: 13.5), 130 μL ACN (containing internal standard) as TO sample. 6) Preparation of acceptor sample: The plate was removed from incubator. 270 μL solution was transferred from each acceptor well and mixed with 130 μL ACN (containing internal standard) as acceptor sample. 7) Preparation of donor sample: […] was transferred from each donor well and mixed with 250 μL PBS (DF: 13.5), 130 μL ACN (containing internal standard) as donor sample. 8) Acceptor samples and donor samples were all analyzed by LC/MS/MS."}, "[2]": {"system": "colchicine binding site of tubulin", "test": "EBI labeling assay in MIA PaCa2 cells (Western blot)", "assay_type": "cell-based", "conditions": "2 hours compound, then 2 hours 100 μM EBI, FIG. 2, FIG. 3"}, "HCT116 cells": {"system": "HCT116 cells", "test": "Spindle assembly checkpoint activation, flow cytometry", "assay_type": "cell-based", "conditions": "300 nM; FIG. 6", "protocol": "• 1. Hct116 were grown in DMEM with 10% FBS and 1% Penicillin/Streptomycin. • 2. Cells were plated into 6 well dishes at indicated cell numbers below (i.e. plate 1=300 k cells per well) and treatment started later the same day. Asynchronous (Asynch) control cells (Plate 1 were collected 1 day after plating. Compound 1 and Nocodazole were both 300 nM, CDK1i Ro-3306 10 μM, Aurora Bi (ABi) Hesperadin 50 μM. • 3. Cells were treated with Compound 1 or Noc for 20 hours then sequentially without changing media they were treated with CDK1i or ABi for 4 more hours. Alternatively, cells were treated with Compound 1 or Noc for 20 h then washed twice with warm media and grown in fresh media for 4 hours to allow passage through mitosis into G1 as diploid cells. • 4. Note that plate 4 treatments were in general extremely toxic to cells or inconclusive.\n• 1. Collected all media and cells into the same conical tube. Centrifuged cells at 1000×g for 3 min. • 2. Aspirated off supernatant, washed with PBS. • 3. Centrifuged cells as above. • 4. Resuspended cells in cold 400 μl and while gently vortexing added 1 mL cold 100% ethanol slowly dropwise (fixes and permeabilizes) • 5. Stored at 4 degrees C. for at a minimum of 1 hour, or up to one week. • 6. […] Analyzed data with FlowJo 10 software and made graphs with GraphPad Prism."}, "A549 cells": {"system": "A549 cells", "test": "In vitro potency, ATPlite 1Step (NTRC Oncolines)", "assay_type": "cell-based", "conditions": "Homo sapiens; for Emax: A549, A549, in vitro, biphasic, read-out: Maximum effect (%)", "protocol": "FIG. 13A-13B show efficacy of Compound 1 in a lung adenocarcinoma xenograft model (A549). A) In vitro potency of Compound 1 in A549 cells as evaluated by ATPlite 1Step™ Perkin Elmer (performed by NTRC Oncolines). B) A549 cells (5×10^6) were implanted subcutaneously in athymic female nude mice and tumors were allowed to grow to a volume of ˜112 mm^3 followed by randomization of animals into three (3) groups (vehicle control, 75 mg/kg, 150 mg/kg Compound 1) with 12 animals per group. A Compound 1 solid dispersion was prepared prior to each dosing and administered by oral gavage two times a day (BID). Mean tumor volume of each group over time and the growth of tumor in each individual animal was graphed. For each individual animal of […] group TGI (%) was calculated based on the tumor growth inhibition of individual tumor at each given day of the study compared to the average of the group for that given day of the study. P-values were calculated using two-tailed distribution and two-sample equal variance (homoscedastic) for each group treated with Compound 1 for each given day of the study in reference to vehicle control. NS p>0.05; *p≤0.05; **p≤0.01; ***p p≤0.001; **** p≤0.0001.\nA549 is a human lung adenocarcinoma cell line isolated from the lung tissue of their origin. […] A549 cells were implanted subcutaneously in nude mice and tumors were allowed to grow to an average volume of 112 mm^3 followed by randomization into three (3) groups consisting of vehicle control, 75 mg/kg and 150 mg/kg Compound 1 (12 animals per group). A Compound 1 solid dispersion was administered by oral gavage two times a day (BID). All animals remained in the study until Day 28 except one animal from Group 3 (Animal #29), which exited the study on Day 11 due to more than 20% body weight loss. This animal was excluded from all analysis. Data from Day 14-18 were excluded from the analysis due to inconsistencies in data collection methods."}}, "note": "pIC50: −log10 of the molar value. Like-named read-outs stand apart in the source and are kept apart here.", "data": [{"smiles": "COc1ccccc1-c1nc(CNC(=O)c2ccccc2OC(F)F)n[nH]1", "note": "[Compound 1, 2-(difluoromethoxy)-N-[[5-(2-methoxyphenyl)-1H-1,2,4-triazol-3-yl]methyl]benzamide]", "values": [{"measurement": "Permeability", "setting": "[1]; 10 μM, 4 h", "result": "highly permeable and High"}, {"measurement": "Papp at 4 h, 10 μM", "setting": "[1]; PAMPA, read-out: Mean Pe", "result": 6.76, "unit": "×10⁻⁶ cm/s"}, {"measurement": "recovery at 4 h, 10 μM", "setting": "[1]; pig, not told", "result": 85.8, "unit": "%"}, {"measurement": "Formation of EBI:β-tubulin adducts", "setting": "[2]", "result": "inhibited the formation of EBI (N,N′-ethylene-bis(iodoacetamide)):β-tubulin adducts"}, {"measurement": "Spindle assembly checkpoint activation, mechanism", "setting": "HCT116 cells", "result": "a mechanism at or before microtubule-kinetochore attachment in M phase of the cell cycle"}, {"measurement": "Emax", "setting": "A549 cells; at highest concentration tested", "result": 100, "unit": "%"}, {"measurement": "Emax", "setting": "A549 cells; first phase", "result": 52, "unit": "%"}, {"measurement": "pIC50", "setting": "A549 cells; A549, biphasic response, first phase", "result": 7.28}]}]}
